Results taken from patent publication US11319274B2, “Process for the preparation of polymorph form B of treprostinil diethanolamine salt” (CHINOIN GYÓGYSZER ÉS VEGYÉSZETI TERMÉKEK GYÁRA ZRT., priority 2018, dated 2022).
Counter-ions that a name gives are not always drawn. Like-named read-outs stand apart in the source and are kept apart here.

What was measured:
[1] = hygroscopic character of the polymorph forms; format: physicochemical; conditions: crystals from methanol-methyl tertiary-butyl ether at −70° C. (example 17)
Description: (§1) The two polymorph forms (forms A and B) of the crystalline treprostinil diethanolamine salt were first described in patent specification WO2005/007081. The polymorph forms were characterized by their melting point, X-ray powder diffraction pattern, DSC (Differential Scanning calorimetry) and TGA (Thermogravimetric Analysis) curves, and by their hygroscopic character.
(§2) Polymorph form B of treprostinil diethanolamine salt was obtained also if the salt was dissolved in methanol, the solution was set to opalescent with methyl tertiary-butyl ether at 45° C. and then crystallisation was completed at room temperature (yield 87%) (example 16.). […] This form is named polymorph form C (example 17.).

[2] = relative stability / transformation of the polymorph forms; format: physicochemical; conditions: on the basis of the DSC curve; transforms in the DSC tube into the more stable, higher melting form
Text: as §1
Publication Organic Process & Development, 2009, 13, 242-249. (Crystallization Process Development for Stable Polymorph of Treprostinil; Batra, H.; Penmasta, R.; Phares, K.; Staszewski, J.; Tuladhar, S. M; D. A. Walsh, United Therapeutics) describes in detail the physical characteristics of the two polymorphs and the experiments carried out for their preparation.
as §2
DSC: • Instrument: METTLER TOLEDO DSC1 STARe System, Stare basic V9.30 • Method: Starting temperature: 30° C. • Final temperature: 150° C. • Heating rate: 5° C./min • Amount: 2-6 mg, perforated aluminum crucible (40 μl)

[3] = crystalline polymorph, as stated in WO2005/007081; cited from earlier work
[4] = cited from earlier work; for polymorph stability: as stated in WO2005/007081

Row | SMILES | hygroscopic character [1] | polymorph stability [2] | hygroscopic character [3] | transformation on standing ([4]; Organic Process & Development, 2009, 13, 242-249) | polymorph stability [4] | transformation in suspension ([4]; suspension in organic solvents (1,4-dioxane, isopropanol, tetrahydrofuran, toluene), agitation at different temperatures, WO2005/007081)
1 | CCCCC[C@H](O)CC[C@@H]1[C@H]2Cc3cccc(OCC(=O)O)c3C[C@H]2C[C@H]1O [polymorph form C, (1R,2R,3aS,9aS)-2-[2-Hydroxy-1-[3(S)-hydroxyoctyl]-2,3,3a,4,9,9a-hexahydro-1H-benz[f]inden-5-yloxy] acetic acid diethanolamine salt] | highly hygroscopic | less stable form | – | – | – | –
2 | CCCCC[C@H](O)CC[C@@H]1[C@H]2Cc3cccc(OCC(=O)O)c3C[C@H]2C[C@H]1O [form A, (1R,2R,3aS,9aS)-2-[2-Hydroxy-1-[3(S)-hydroxyoctyl]-2,3,3a,4,9,9a-hexahydro-1H-benz[f]inden-5-yloxy] acetic acid diethanolamine salt] | – | – | hygroscopic | on standing transforms into the thermodynamically more stable form B | metastable | transforms into form B on agitation
3 | CCCCC[C@H](O)CC[C@@H]1[C@H]2Cc3cccc(OCC(=O)O)c3C[C@H]2C[C@H]1O [form B, (1R,2R,3aS,9aS)-2-[2-Hydroxy-1-[3(S)-hydroxyoctyl]-2,3,3a,4,9,9a-hexahydro-1H-benz[f]inden-5-yloxy] acetic acid diethanolamine salt] | – | – | much less hygroscopic | – | more stable | –
